Results published in the supplement of paper PMC10307832.

What was measured:
Experiment in all cases: relative viability (nuclei count vs DMSO), 5 days (fraction); higher = more cells survive
TPCA-1 + Olaparib = compound: C1=CC(=CC=C1C2=CC(=C(S2)NC(=O)N)C(=O)N)F [TPCA-1] + O=C(c1cc(Cc2n[nH]c(=O)c3ccccc23)ccc1F)N1CCN(C(=O)C2CC2)CC1 [Olaparib] (partner 8 µM)
Summary of the method: (§1)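 One day after seeding in 1536-well plates, lung cancer cell lines were dosed by pin tool. Dosing was either single-drug or a fixed anchor-drug dose plus five library-drug doses (not always all listed) in √10 steps. After 5 days, nuclei were stained in one fix-and-stain step and counted on 4× images, and relative viability is the nuclei count of treated wells over that of vehicle wells, given as the median of duplicate plates.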

[1] = compound: C[C@]12O[C@H](C[C@]1(O)CO)n1c3ccccc3c3c4c(c5c6ccccc6n2c5c31)CNC4=O [Lestaurtinib] + Nc1ncn([C@H]2C[C@H](O)[C@@H](CO)O2)c(=O)n1 [Decitabine] (partner 2 µM)
Summary of the method: as §1

Lestaurtinib + Lapatinib = compound: C[C@]12O[C@H](C[C@]1(O)CO)n1c3ccccc3c3c4c(c5c6ccccc6n2c5c31)CNC4=O [Lestaurtinib] + CS(=O)(=O)CCNCc1ccc(-c2ccc3ncnc(Nc4ccc(OCc5cccc(F)c5)c(Cl)c4)c3c2)o1 [Lapatinib] (partner 2 µM)
Summary of the method: as §1

TPCA-1 + Luminespib = compound: C1=CC(=CC=C1C2=CC(=C(S2)NC(=O)N)C(=O)N)F [TPCA-1] + CCNC(=O)c1noc(-c2cc(C(C)C)c(O)cc2O)c1-c1ccc(CN2CCOCC2)cc1 [Luminespib] (partner 0.01 µM)
Summary of the method: as §1

Row | Cell Line | relative viability (TPCA-1 + Olaparib; first compound 0.04 µM) | relative viability (TPCA-1 + Olaparib; first compound 0.1265 µM) | relative viability (TPCA-1 + Olaparib; first compound 0.4 µM) | relative viability (TPCA-1 + Olaparib; first compound 1.265 µM) | relative viability (TPCA-1 + Olaparib; first compound 4 µM) | relative viability ([1]; first compound 0.005 µM) | relative viability ([1]; first compound 0.01581 µM) | relative viability ([1]; first compound 0.05 µM) | relative viability ([1]; first compound 0.1581 µM) | relative viability ([1]; first compound 0.5 µM) | relative viability (Lestaurtinib + Lapatinib; first compound 0.005 µM) | relative viability (Lestaurtinib + Lapatinib; first compound 0.01581 µM) | relative viability (Lestaurtinib + Lapatinib; first compound 0.05 µM) | relative viability (Lestaurtinib + Lapatinib; first compound 0.1581 µM) | relative viability (Lestaurtinib + Lapatinib; first compound 0.5 µM) | relative viability (TPCA-1 + Luminespib; first compound 0.04 µM) | relative viability (TPCA-1 + Luminespib; first compound 0.1265 µM) | relative viability (TPCA-1 + Luminespib; first compound 0.4 µM) | relative viability (TPCA-1 + Luminespib; first compound 1.265 µM) | relative viability (TPCA-1 + Luminespib; first compound 4 µM)
1 | NCI-H1651 | 0.192 | 0.177 | 0.185 | 0.171 | 0.134 | 0.63 | 0.775 | 0.59 | 0.653 | 0.406 | 0.756 | 0.93 | 0.715 | 0.636 | 0.211 | 0.839 | 0.979 | 0.835 | 0.915 | 1
2 | NCI-H1666 | 0.767 | 0.673 | 0.71 | 0.757 | 0.768 | 0.769 | 0.807 | 0.944 | 0.912 | 0.704 | 0.732 | 1.2 | 0.51 | 0.556 | 0.277 | 1.03 | 0.99 | 1.08 | 1.04 | 1.05
3 | NCI-H1734 | 0.648 | 0.559 | 0.692 | 0.561 | 0.463 | 0.56 | 0.499 | 0.442 | 0.444 | 0.253 | 1.09 | 1.22 | 0.808 | 0.895 | 0.199 | 0.192 | 0.201 | 0.221 | 0.19 | 0.162
4 | NCI-H1755 | 0.778 | 0.912 | 0.877 | 0.853 | 0.672 | 0.723 | 0.791 | 0.806 | 0.638 | 0.559 | 1.01 | 1.1 | 0.907 | 0.39 | 0.232 | 0.596 | 0.408 | 0.357 | 0.35 | 0.418
5 | NCI-H1792 | 0.432 | 0.281 | 0.382 | 0.352 | 0.202 | 0.485 | 0.567 | 0.336 | 0.543 | 0.256 | 0.779 | 1.05 | 0.56 | 0.653 | 0.244 | 0.429 | 0.237 | 0.446 | 0.501 | 0.367
6 | NCI-H1793 | 0.982 | 0.735 | 1.1 | 0.821 | 0.546 | 0.506 | 0.481 | 0.459 | 0.542 | 0.421 | 0.927 | 0.907 | 0.467 | 0.441 | 0.235 | 0.173 |  | 0.142 | 0.142 | 0.134
7 | NCI-H1915 | 0.28 | 0.266 | 0.26 | 0.274 | 0.219 | 0.275 | 0.266 | 0.284 | 0.263 | 0.217 | 0.971 | 1.12 | 0.922 | 0.82 | 0.294 | 0.883 | 0.804 | 0.754 | 0.852 | 0.581
8 | NCI-H1944 | 0.482 | 0.424 | 0.436 | 0.425 | 0.336 | 0.419 | 0.481 | 0.442 | 0.463 | 0.317 | 0.924 | 0.733 | 0.691 | 0.58 | 0.571 | 0.872 | 0.663 | 0.71 | 0.626 | 0.513
9 | NCI-H1975 | 0.843 | 0.72 | 0.806 | 0.735 | 0.6 | 0.395 | 0.39 | 0.356 | 0.36 | 0.338 | 0.902 | 0.812 | 0.475 | 0.422 | 0.155 | 0.577 | 0.275 | 0.2 | 0.199 | 0.129
10 | NCI-H1993 | 1.23 | 1.03 | 0.958 | 1.07 | 0.99 | 0.62 | 0.666 | 0.729 | 0.499 | 0.428 | 0.805 | 0.848 | 0.678 | 0.595 | 0.602 | 0.694 | 0.688 | 0.783 | 1.29 | 0.669
11 | NCI-H2009 | 0.697 | 0.733 | 0.626 | 0.753 | 0.817 | 0.373 | 0.392 | 0.399 | 0.36 | 0.347 | 0.959 | 0.942 | 0.807 | 0.755 | 0.15 | 0.977 | 1.05 | 1.01 | 1.02 | 1.03
12 | NCI-H2023 | 0.633 | 0.445 | 0.581 | 0.516 | 0.411 | 0.241 | 0.254 | 0.231 | 0.183 | 0.105 | 0.987 | 0.753 | 0.503 | 0.22 | 0.0798 | 0.993 | 0.91 | 0.779 | 0.472 | 0.373
13 | NCI-H2085 |  | 0.74 | 0.738 | 0.839 | 0.683 | 0.55 | 0.583 | 0.664 | 0.597 | 0.551 | 0.812 | 0.89 | 0.871 | 0.667 | 0.433 | 0.427 | 0.408 | 0.574 | 0.473 | 0.45
14 | NCI-H2087 | 0.711 | 0.588 | 0.541 | 0.546 | 0.364 | 0.289 | 0.338 | 0.258 | 0.207 | 0.206 | 1.31 | 1.05 | 0.858 | 0.693 | 0.205 | 0.171 | 0.176 | 0.156 | 0.15 | 0.141
15 | NCI-H2126 | 0.951 | 0.924 | 0.911 | 0.875 | 0.88 | 0.582 | 0.593 | 0.623 | 0.536 | 0.553 | 0.821 | 0.901 | 0.613 | 0.81 | 0.552 | 0.94 | 0.947 | 0.984 | 0.797 | 0.676
16 | NCI-H2170 | 0.668 | 0.568 | 0.65 | 0.508 | 0.439 | 0.461 | 0.489 | 0.441 | 0.43 | 0.383 | 0.267 | 0.248 | 0.273 | 0.238 | 0.201 | 0.968 | 0.703 | 0.535 | 0.681 | 0.277
